Assay results from ChEMBL document CHEMBL1201862, “PubChem BioAssay data set” (2004).
Activity calls are given as the source filed them. For most assays here, no stated cut-off is given here; in the data, actives have a measured EC50 and inactives only a lower limit.

Legend:
[1] = target: Induced myeloid leukemia cell differentiation protein Mcl-1 (Homo sapiens, UniProt Q07820); format: functional
[2] = target: T1, Apoptotic protease-activating factor 1 (Homo sapiens, UniProt O14727); format: functional
T1 sequence (O14727 whole entry): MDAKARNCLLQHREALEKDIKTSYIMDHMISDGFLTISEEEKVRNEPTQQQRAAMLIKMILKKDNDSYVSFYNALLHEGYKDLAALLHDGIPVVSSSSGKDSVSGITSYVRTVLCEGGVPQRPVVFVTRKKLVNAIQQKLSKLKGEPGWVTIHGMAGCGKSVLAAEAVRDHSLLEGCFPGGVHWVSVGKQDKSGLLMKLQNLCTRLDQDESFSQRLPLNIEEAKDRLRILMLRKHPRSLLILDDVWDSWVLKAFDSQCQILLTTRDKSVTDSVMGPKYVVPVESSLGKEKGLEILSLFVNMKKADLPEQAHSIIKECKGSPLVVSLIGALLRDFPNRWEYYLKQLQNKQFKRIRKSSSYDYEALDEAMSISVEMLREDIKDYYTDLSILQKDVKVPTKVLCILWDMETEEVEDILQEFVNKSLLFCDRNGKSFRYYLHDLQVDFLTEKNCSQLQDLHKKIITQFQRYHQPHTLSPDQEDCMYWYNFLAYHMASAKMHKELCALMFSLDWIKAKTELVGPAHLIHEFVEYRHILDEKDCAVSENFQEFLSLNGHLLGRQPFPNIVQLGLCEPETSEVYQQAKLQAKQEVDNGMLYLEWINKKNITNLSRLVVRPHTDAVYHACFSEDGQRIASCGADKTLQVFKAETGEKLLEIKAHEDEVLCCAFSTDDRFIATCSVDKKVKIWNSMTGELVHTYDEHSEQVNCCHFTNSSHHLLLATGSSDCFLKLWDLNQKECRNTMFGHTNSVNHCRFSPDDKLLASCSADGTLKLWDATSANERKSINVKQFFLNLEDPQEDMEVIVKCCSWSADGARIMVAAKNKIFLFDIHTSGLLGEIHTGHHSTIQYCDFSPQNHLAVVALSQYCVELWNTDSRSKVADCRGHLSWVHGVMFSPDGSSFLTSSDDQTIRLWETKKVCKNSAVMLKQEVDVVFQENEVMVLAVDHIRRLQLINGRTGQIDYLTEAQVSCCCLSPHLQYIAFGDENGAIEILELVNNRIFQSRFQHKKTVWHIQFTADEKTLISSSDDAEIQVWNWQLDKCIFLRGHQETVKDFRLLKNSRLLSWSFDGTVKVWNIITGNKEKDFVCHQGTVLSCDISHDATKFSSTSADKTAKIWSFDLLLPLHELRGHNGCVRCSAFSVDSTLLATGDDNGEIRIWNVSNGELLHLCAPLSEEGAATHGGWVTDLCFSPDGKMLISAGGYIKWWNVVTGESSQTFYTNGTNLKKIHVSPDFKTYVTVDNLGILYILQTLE

[3] = system: Streptococcus sp. 'group A'; assay: Streptococcus pyogenes SK(-)GAS viability under kanamycin – luminescence, BacTiterGlo, confirmation, counter-screen for streptokinase expression inhibitor project, dose response (AID 1900); format: functional, organism-based
[4] = target: DNA dC->dU-editing enzyme APOBEC-3A (Homo sapiens, UniProt P31941); assay: A3A deaminase inhibition for selectivity – biochemical, dose response (AID 504722); format: functional
DNA dC->dU-editing enzyme APOBEC-3A, sequence (P31941 whole entry): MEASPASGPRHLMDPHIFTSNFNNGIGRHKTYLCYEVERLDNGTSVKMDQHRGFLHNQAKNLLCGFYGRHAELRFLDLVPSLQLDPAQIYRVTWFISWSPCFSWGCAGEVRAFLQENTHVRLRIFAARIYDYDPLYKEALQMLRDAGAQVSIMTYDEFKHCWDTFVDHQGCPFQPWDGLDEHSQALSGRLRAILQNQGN

[5] = target: G-protein coupled receptor 55 (Homo sapiens, UniProt Q9Y2T6); assay: inhibition of LPI-stimulated GPR55 beta-arrestin translocation – imaging, U2OS, beta-arrestin-GFP, LPI agonist, primary screen (AID 2013); format: functional;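 further: antagonist potency measured as reduced agonist-driven arrestin aggregation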
G-protein coupled receptor 55, sequence (Q9Y2T6 whole entry): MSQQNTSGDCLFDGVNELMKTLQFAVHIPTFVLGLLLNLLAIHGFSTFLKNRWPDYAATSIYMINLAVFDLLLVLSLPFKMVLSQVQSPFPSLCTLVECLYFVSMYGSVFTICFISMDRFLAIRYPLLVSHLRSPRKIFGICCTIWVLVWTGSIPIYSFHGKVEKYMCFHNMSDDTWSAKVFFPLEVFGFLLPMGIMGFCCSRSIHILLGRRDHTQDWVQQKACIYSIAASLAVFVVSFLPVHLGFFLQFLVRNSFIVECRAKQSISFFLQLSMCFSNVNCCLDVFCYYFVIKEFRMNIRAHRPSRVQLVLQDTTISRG

[6] = alpha-synuclein stem-loop luciferase translation blockers – H4 neuroglioma cells, luminescence, confirmation (AID 1988); format: functional, cell-based
Protein RecA = target: T2, Protein RecA (Mycobacterium tuberculosis, UniProt P9WHJ3); assay: Fluorescence Cell-Free Homogeneous Dose Retest to Identify Inhibitors of RecA-Intein Splicing Activity. [Related pubchem assays (depositor defined):AID2097, AID2223, AID489010, AID492950]; format: functional
T2 sequence (P9WHJ3 whole entry): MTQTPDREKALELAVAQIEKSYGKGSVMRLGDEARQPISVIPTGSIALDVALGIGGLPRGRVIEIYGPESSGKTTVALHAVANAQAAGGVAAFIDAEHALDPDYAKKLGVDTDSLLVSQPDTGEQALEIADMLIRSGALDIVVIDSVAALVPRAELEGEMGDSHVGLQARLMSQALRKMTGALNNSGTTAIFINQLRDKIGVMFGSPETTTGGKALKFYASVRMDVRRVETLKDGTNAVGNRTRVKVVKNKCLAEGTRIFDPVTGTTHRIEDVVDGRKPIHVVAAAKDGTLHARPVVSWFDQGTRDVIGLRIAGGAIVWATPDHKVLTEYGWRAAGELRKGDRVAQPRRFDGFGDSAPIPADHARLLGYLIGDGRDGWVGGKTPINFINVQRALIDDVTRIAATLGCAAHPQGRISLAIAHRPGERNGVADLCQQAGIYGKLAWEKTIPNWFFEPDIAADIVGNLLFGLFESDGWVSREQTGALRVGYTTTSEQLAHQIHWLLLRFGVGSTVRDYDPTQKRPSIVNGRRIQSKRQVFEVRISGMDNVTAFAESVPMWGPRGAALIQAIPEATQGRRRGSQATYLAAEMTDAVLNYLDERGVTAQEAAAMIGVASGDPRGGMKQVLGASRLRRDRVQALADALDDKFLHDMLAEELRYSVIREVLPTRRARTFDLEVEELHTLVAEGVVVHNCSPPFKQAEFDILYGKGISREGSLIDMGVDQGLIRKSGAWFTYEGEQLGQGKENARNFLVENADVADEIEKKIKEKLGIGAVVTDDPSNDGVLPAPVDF

[7] = target: T3, RNA-binding protein pos-1 (Caenorhabditis elegans, UniProt G5EF15); assay: disruptors of C. elegans POS-1 RNA interaction – biochemical, fluorescence polarization, dose response (AID 1964);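 further: purified POS-1 fused to maltose binding protein made in E. coli; potency of compounds blocking POS-1 binding to fluorescent RNA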
T3 sequence (G5EF15 whole entry): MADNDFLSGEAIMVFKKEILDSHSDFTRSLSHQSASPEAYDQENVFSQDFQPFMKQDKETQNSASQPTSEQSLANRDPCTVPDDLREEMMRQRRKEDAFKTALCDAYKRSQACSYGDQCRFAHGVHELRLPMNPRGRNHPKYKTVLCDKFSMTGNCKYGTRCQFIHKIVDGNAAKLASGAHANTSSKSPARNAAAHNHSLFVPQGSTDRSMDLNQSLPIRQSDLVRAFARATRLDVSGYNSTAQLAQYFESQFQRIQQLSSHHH

[8] = Luminescence Cell-Based Dose Response HTS to Identify Inhibitors of 5'UTR Stem-Loop Driven Prion Protein mRNA Translation in H4 Neuroglioblastoma Cells. [Related pubchem assays: 1827 (Project Summary), 1813 (Primary HTS)]; format: functional
[9] = Trypanosoma cruzi growth suppression in host cells – NIH3T3 host cells, beta-gal luminescence, confirmation (AID 2044); format: functional, cell-based;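 further: intracellular parasites grown in NIH/3T3 mouse fibroblasts as host cells; luminescent beta-galactosidase reporter signal from transgenic T. cruzi replicating inside host cells; inhibitors lower the luminescence signal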
Streptococcus = assay: GAS UMAA2166 growth inhibition – luminescence, BacTiterGlo, counter-screen for streptokinase expression inhibitor project, dose response (AID 1915); format: functional, organism-based;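 further: potency for reduction of bacterial viability or growth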

Induced myeloid leukemia cell differentiation protein Mcl-1, sequence (Q07820 whole entry): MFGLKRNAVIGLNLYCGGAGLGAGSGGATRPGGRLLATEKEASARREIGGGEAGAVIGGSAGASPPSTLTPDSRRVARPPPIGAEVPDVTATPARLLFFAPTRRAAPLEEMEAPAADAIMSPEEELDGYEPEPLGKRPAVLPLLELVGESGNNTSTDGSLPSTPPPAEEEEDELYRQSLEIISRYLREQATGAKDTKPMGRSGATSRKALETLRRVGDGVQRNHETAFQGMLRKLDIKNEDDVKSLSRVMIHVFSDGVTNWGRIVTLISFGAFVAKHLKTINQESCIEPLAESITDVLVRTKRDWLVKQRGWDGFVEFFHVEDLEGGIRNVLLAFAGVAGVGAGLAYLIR

In the case of `CC(=O)N(C1=C(Cl)C(=O)c2ccccc2C1=O)C1CCCCC1`, the IC50 [1] is reported as 14.5 µM (active), the IC50 [2] is reported as 3.12 µM (active) and the EC50 [3] is reported as 6.92 µM (active). The IC50 [4] was > 100 µM (inactive), the IC50 [5] was 4.55 µM (active) and the EC50 [6] was > 120 µM (not active). For the same compound, the EC50 (Protein RecA) was 1.18 µM (active), the EC50 [7] was 139 µM (active) and the EC50 [8] was 20.5 µM (active). The EC50 [9] was 1.83 µM (active) and the EC50 (Streptococcus) was > 150 µM (not active).
For `Oc1ccc(-c2cn3c(n2)SCC3)cc1O`, the IC50 [1] was 2.26 µM (active), the IC50 [4] was > 100 µM (inactive) and the EC50 [7] was 3.63 µM (active).
In the case of `Cc1ccc(NC2=C/C(=N\S(=O)(=O)c3cccs3)c3ccccc3C2=O)c(C)c1`, the IC50 [2] is reported as 0.411 µM (active), the EC50 [3] is reported as 2.99 µM (active) and the IC50 [5] is reported as 1.87 µM (active). For the same compound, the EC50 [6] was 8.43 µM (inconclusive), the EC50 (Protein RecA) was 0.185 µM (active) and the EC50 [8] was 8.59 µM (inconclusive). For the same compound, the EC50 [9] was 0.719 µM (active) and the EC50 (Streptococcus) was 3.08 µM (active).
For `COc1ccc(/C=N/NC(=O)c2nn(-c3ccccc3)c(=O)c3c(N)scc23)cc1`, the IC50 [2] was 15.3 µM (active) and the EC50 (Protein RecA) was 0.22 µM (active).
